Source: article PMC6696338, “Pharmacokinetic and Metabolism Studies of Monomethyl Auristatin F via Liquid Chromatography-Quadrupole-Time-of-Flight Mass Spectrometry” (Molecules, 2019)
Non-standard residues stand in square brackets, D forms with d. Residues, ends and D or L forms follow the SMILES beside them. Dolaproine = CO[C@@H]([C@@H]1CCCN1)[C@@H](C)C(=O)O; Dil = CC[C@H](C)[C@H](NC)[C@@H](CC(=O)O)OC; NMeV = CN[C@H](C(=O)O)C(C)C

Tests used:
[1] = qualitative comparison; cited from earlier work
From the text: Auristatin is a microtubule-destroying drug. It was derived from marine shell-less mollusk Dolabella auricularia called dolastatins (Figure 1). After the dolastatin was found, it has been studied in the treatment of cancer, malaria, and fungus. After the successful total synthesis of dolastatin 10, various derivatives have been synthesized, such as monomethyl auristatin E (MMAE) and monomethyl auristatin F (MMAF). MMAE and MMAF were developed by Seattle Genetics and used as payloads for ADC. MMAF and MMAE have their advantages and disadvantages. MMAE is m ...

[2] = In vitro metabolite profiling in human liver microsome; format: in vitro ADME; conditions: 90 min, 37 °C
From the text: (§1) LC-TOF-MS/MS was consisted of a Shimadzu CBM-20A/LC-20AD chromatographic system (Shimadzu Scientific Instruments, Columbia, MD, USA), with an eksigent CTC HTS PAL auto-sampler (Sciex, Redwood City, CA, USA) and a quadrupole time-of-flight TripleTOF 5600 mass spectrometer (Sciex, Redwood City, CA, USA). Kinetex XB-C18 column (2.1 × 50 mm, Phenomenex) for quantification and Kinetex XB-C18 column (2.1 × 100 mm, Phenomenex) for metabolite profiling studies were used as analytical columns. The LC mobile phase consisted of DW containing 0.1% formic acid (phase A) and ACN containing 0.1% formic acid (phase B). The flow rate was 0.4 mL/min for quantification and 0.3 mL/min for Met ID while maintaining the column temperature at 55 °C. Injection volume was 10 μL.
(§2) (2) Metabolite profiling: The mass spectrometric conditions for the metabolite profiling of MMAF were as follows. The information-dependent analysis (IDA) with high-resolution TOF full scan was operated with electrospray ionization (ESI) in positive ion mode using real-time multiple mass defect filtering (MDF) and dynamic background subtraction. The IDA method consisted of TOF scan (m/z 50 to 1200) for the detection of MMAF and its metabolites. The method was followed by 6 TOF-MS/MS dependent scans (m/z 50 to 1200) for structural elucidation. […]

[3] = Pharmacokinetic study of MMAF in rat (IV and PO), plasma by LC-TOF-MS/MS; format: in vivo; conditions: male SD rat
Experimental: Twenty microliters of rat plasma samples were placed in a cluster tube. Four microliters (make-up solution) of DMSO were added to the cluster tube, and 100 μL of ACN was also added. The mixture was capped and vortexed, and then centrifuged for 5 min at 12,000 rpm (4 °C). Following the centrifugation, 70 μL supernatant was transferred to an LC vial and diluted by adding 140 μL of DW.
as §1
(1) Quantification: For TOF-MS/MS scan, the scan range was m/z 100~900. The protonated [M + H]^+ ion of MMAF (m/z 732.5) was used and its product ions at m/z 700.5 and m/z 520.3 were selected as the quantitative ion and the qualitative ion, respectively. The source temperature was set at 500 °C. The curtain gas flow was set at 30 L/min. The ion spray voltage (IVSF) was set at 5500 V. The declustering potential (DP) was 100 V, and the collision energy (CE) was 36 V.
Data acquisition and LC-MS/MS operation were conducted using Analyst® TF Version 1.6 (Sciex, Redwood City, CA, USA). MultiQuant® Version 2.1.1 (Sciex, Redwood City, CA, USA) was used for peak integration for MMAF quantification. The descriptive statistics for the qualification studies were calculated with Excel 2015 (Microsoft, Seoul, Korea). Pharmacokinetic parameters were calculated in a non-compartmental analysis using WinNonlin® version 8.0.0 (Certara, Princeton, NJ, USA). PeakView® Version 2.2 (Sciex, Redwood City, CA, USA) and MetabolitePilot^TM Version 2.0.2 (Sciex, Redwood City, CA, USA) were used for the structural elucidation of metabolites. MedChem Designer (Simulations Plus, Inc, Lancaster, CA, USA) was used for in silico metabolite prediction.
Male Sprague-Dawley (SD) rats were used for rat PK studies of MMAF. For rat PK studies of MMAF, rats were distributed into two different groups (5 mg/kg IV (intravenous) group and 10 mg/kg PO (oral) group). After IV or PO dose, blood samples were collected to heparinized tubes and centrifuged immediately at 10,000 rpm for 5 min. The sampling times were 0, 2, 5, 15, 30, 60, 90, 120, 240, 360, and 1440 min for IV PK and 0, 5, 15, 30, 60, 90, 120, 240, 360, and 1440 min for PO PK. The supernatant was transferred to a clean tube and stored at −80 °C until analysis.

[4] = In vitro metabolite profiling in rat liver microsome; format: in vitro ADME; conditions: 90 min, 37 °C
From the text: as §1, §2

[5] = Preliminary stability tests of MMAF in rat plasma; format: in vitro ADME; conditions: for Short-term stability, mean concentration / Short-term stability, accuracy %: RT, 4 h; for Short-term stability, accuracy % / Long-term stability, accuracy % / Freeze-thaw stability, accuracy %: n = 3; for Freeze-thaw stability, accuracy %: three cycles
Experimental: Preliminary stability tests were performed in rat plasma under 4 different conditions, including short-term, freeze-thaw, long-term, and post-preparative stability. The short-term stability was assessed at room temperature (RT) for 4 hrs. The long-term stability was assessed by comparing the freshly prepared control samples to the samples kept frozen for 4 weeks at −80 °C. For the freeze-thaw stability, the stability-test samples were subjected to three freeze and thaw cycles at −80 °C. The post-preparative stability was assessed for the QC samples kept in an auto-sampler (10 °C) for 12 hrs.
The acceptance criteria for all of the qualification were within ±15% of the precision and accuracy.

[6] = processed rat plasma QC in auto-sampler, 10 °C, high QC
[7] = processed rat plasma QC in auto-sampler, 10 °C, low QC

**Q.** Which results are given for monomethyl auristatin E [MMAE]?
**A.** IC50 relative to MMAF [1]: lower IC50 than MMAF; Membrane permeability relative to MMAF [1]: more membrane-permeable

**Q.** Which “Aggregation tendency relative to MMAE” value [1] does the source give for `CC[C@H](C)[C@@H]([C@@H](CC(=O)N1CCC[C@H]1[C@H](OC)[C@@H](C)C(=O)N[C@@H](Cc1ccccc1)C(=O)O)OC)N(C)C(=O)[C@@H](NC(=O)[C@@H](NC)C(C)C)C(C)C` [MMAF, monomethyl auristatin F] (H-[NMeV]V[Dil][Dolaproine]F-OH) here?
**A.** lower aggregation tendency

**Q.** And the “Hydrophilicity relative to MMAE” value [1]?
**A.** more hydrophilic

**Q.** What about the “Systemic toxicity relative to MMAE” value [1] of the same molecule?
**A.** lower systemic toxicity

**Q.** And the “Number of metabolites tentatively identified” value [2]?
**A.** seven

**Q.** What about the clearance ([3]; Sprague-Dawley, plasma, IV 5 mg/kg, non-compartmental analysis, read-out: Clearance (CL)) of the same molecule?
**A.** 77.3 mL/min/kg

**Q.** And the Vd ([3]; Sprague-Dawley, plasma, IV 5 mg/kg, non-compartmental analysis, read-out: Vss)?
**A.** 1.06 L/kg

**Q.** What about the AUC(0-t) ([3]; Sprague-Dawley, IV 5 mg/kg, plasma, non-compartmental analysis) of the same molecule?
**A.** 1090 ng·h/mL

**Q.** And the Cmax ([3]; Sprague-Dawley, IV 5 mg/kg, plasma, non-compartmental analysis, LC-TOF-MS/MS)?
**A.** 8280 ng/mL

**Q.** And the Bioavailability ([3]; PO 10 mg/kg vs IV 5 mg/kg)?
**A.** 0%

**Q.** And the “Systemic exposure after oral dosing” value ([3]; PO 10 mg/kg, plasma)?
**A.** no systemic exposure was observed

**Q.** And the “Number of metabolites tentatively identified” value [4]?
**A.** four

**Q.** And the “Post-preparative stability, area ratio after 12 h as % of first injection” value [5, 6]?
**A.** 99.98%

**Q.** What about the “Post-preparative stability, area ratio of 10th injection (after 12hr)” value [5, 6] of the same molecule?
**A.** 7.43

**Q.** What about the “Post-preparative stability, area ratio after 12 h as % of first injection” value [5, 7] of the same molecule?
**A.** 97.93%

**Q.** And the “Post-preparative stability, area ratio of 10th injection (after 12hr)” value [5, 7]?
**A.** 0.61

**Q.** What about the “Post-preparative stability, area ratio of 1st injection” value [5, 6] of the same molecule?
**A.** 7.43

**Q.** And the “Short-term stability, mean concentration” value ([5]; rat plasma, high QC 1820 ng/mL, LC-TOF-MS/MS, mean of n = 3)?
**A.** 1884.23 ng/mL

**Q.** And the “Short-term stability, accuracy %” value ([5]; rat plasma, high QC 1820 ng/mL)?
**A.** 103.53%

**Q.** What about the “Short-term stability, mean concentration” value ([5]; rat plasma, low QC 165.46 ng/mL, LC-TOF-MS/MS, mean of n = 3) of the same molecule?
**A.** 149.90 ng/mL

**Q.** And the “Short-term stability, accuracy %” value ([5]; rat plasma, low QC 165.46 ng/mL)?
**A.** 90.60%

**Q.** What about the “Long-term stability, mean concentration” value ([5]; rat plasma, −80 °C, 4 weeks, high QC 1820 ng/mL, LC-TOF-MS/MS, mean of n = 3) of the same molecule?
**A.** 1657.96 ng/mL

**Q.** And the “Long-term stability, accuracy %” value ([5]; rat plasma, −80 °C, 4 weeks, high QC 1820 ng/mL)?
**A.** 91.10%

**Q.** And the “Long-term stability, accuracy %” value ([5]; rat plasma, −80 °C, 4 weeks, low QC 165.46 ng/mL)?
**A.** 95.46%

**Q.** And the “Freeze-thaw stability, accuracy %” value ([5]; rat plasma, −80 °C, high QC 1820 ng/mL)?
**A.** 91.10%

**Q.** And the “Freeze-thaw stability, accuracy %” value ([5]; rat plasma, −80 °C, low QC 165.46 ng/mL)?
**A.** 95.46%

**Q.** What about the “Stability in rat plasma (in words)” value ([5]; short-term, long-term, freeze/thaw and post-preparative conditions, acceptance ±15%) of the same molecule?
**A.** stable
